In series [1] the target is T1, Carbonic anhydrase 1 (Homo sapiens, UniProt P00915).
Target sequence in this assay (P00915 whole entry): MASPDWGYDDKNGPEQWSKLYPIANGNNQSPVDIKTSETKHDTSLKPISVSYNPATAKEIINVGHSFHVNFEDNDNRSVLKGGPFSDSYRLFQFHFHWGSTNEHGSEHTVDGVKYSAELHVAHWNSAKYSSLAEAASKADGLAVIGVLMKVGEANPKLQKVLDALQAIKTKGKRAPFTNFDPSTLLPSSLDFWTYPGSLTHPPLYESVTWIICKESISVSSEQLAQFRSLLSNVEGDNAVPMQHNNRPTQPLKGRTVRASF
For series [2], the target named is T2, Carbonic anhydrase 2 (Homo sapiens, UniProt P00918).
The target of series [3] is T3, Carbonic anhydrase 9 (Homo sapiens, UniProt Q16790).
A further series concerns the target Carbonic anhydrase 4 (Homo sapiens, UniProt P22748).
For series [4], the target named is T2, Carbonic anhydrase 2. The source holds these as a separate data set.
A further series concerns Ca9-22. The series is described as follows: cells. The class given is functional. The note with it: Homo sapiens, time 48 hrs.
The test system of a further series is HSC-2. The series is described as follows: cells. The note with it: Homo sapiens, time 48 hrs. It is filed as functional.
A further series relates to HSC-3. The series is described as follows: cells. The note with it: Homo sapiens, time 48 hrs. The class given is functional.
Another series deals with HSC-4. The series is described as follows: cells. It is filed as functional. The note with it: Homo sapiens, time 48 hrs.
Series [5] deals with T1, Carbonic anhydrase 1. This is another data set of the same source.
Target sequence in this assay (P00915 whole entry): as above
Series [6] deals with T3, Carbonic anhydrase 9. This is another data set of the same source.
Series [7] has as its target T4, Carbonic anhydrase 12 (Homo sapiens, UniProt O43570).
A further series is described as follows: in vitro. The note with it: human, corneal epithelial cell.
Series [8] concerns the target T4, Carbonic anhydrase 12. Conditions: time 6.0 hrs.
In the next series the target is Carbonic anhydrase 7 (Homo sapiens, UniProt P43166).
Series [9] has as its target T2, Carbonic anhydrase 2. The source holds these as a separate data set.
The target in series [10] is T4, Carbonic anhydrase 12. This is another data set of the same source.
The target of series [11] is T4, Carbonic anhydrase 12. This is another data set of the same source.
A further series has as its system HT-1080. The series is described as follows: cells. It is filed as functional, cell-based. Conditions: Homo sapiens, HT-1080, 48 h.
A further series concerns SH-SY5Y. The series is described as follows: cells. The class given is functional, cell-based. The note with it: Homo sapiens, 48 h.
A further series concerns MCF7. The series is described as follows: cells. It is filed as functional, cell-based. Conditions: Homo sapiens, MCF7, 48 h.
The target of series [12] is T1, Carbonic anhydrase 1. The source holds these as a separate data set.
Target sequence in this assay (P00915 2-261 limits assumed): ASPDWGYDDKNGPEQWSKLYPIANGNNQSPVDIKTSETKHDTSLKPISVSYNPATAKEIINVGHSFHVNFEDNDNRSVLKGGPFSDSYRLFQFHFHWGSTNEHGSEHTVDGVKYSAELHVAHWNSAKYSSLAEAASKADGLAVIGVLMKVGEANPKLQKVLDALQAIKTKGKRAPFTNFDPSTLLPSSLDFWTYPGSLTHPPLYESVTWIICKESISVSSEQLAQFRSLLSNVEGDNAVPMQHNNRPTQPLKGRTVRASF
The target in series [13] is T3, Carbonic anhydrase 9. This is another data set of the same source.
Series [14] concerns the target T2, Carbonic anhydrase 2. This is another data set of the same source.

Where only a bound is given, the exact number is not on record here.

T4 sequence (O43570 whole entry): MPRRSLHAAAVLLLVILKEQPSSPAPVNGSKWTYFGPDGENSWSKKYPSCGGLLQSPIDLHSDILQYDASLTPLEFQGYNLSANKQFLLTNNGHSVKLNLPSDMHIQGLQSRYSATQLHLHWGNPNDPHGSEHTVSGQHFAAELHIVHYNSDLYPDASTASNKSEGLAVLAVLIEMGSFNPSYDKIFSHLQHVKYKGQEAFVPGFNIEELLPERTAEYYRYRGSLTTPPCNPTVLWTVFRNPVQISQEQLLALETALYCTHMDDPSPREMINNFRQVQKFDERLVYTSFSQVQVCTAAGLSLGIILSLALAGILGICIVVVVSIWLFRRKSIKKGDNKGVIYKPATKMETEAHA
Carbonic anhydrase 4, sequence (P22748 whole entry): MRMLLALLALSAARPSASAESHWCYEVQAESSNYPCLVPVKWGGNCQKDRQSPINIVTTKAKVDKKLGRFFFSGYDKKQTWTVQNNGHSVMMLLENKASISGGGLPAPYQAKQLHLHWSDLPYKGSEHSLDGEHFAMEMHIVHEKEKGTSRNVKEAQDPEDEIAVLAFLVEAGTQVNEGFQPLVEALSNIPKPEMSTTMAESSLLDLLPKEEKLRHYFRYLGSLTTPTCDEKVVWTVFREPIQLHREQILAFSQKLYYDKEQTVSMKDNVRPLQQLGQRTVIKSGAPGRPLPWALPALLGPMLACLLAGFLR
Carbonic anhydrase 7, sequence (P43166 whole entry): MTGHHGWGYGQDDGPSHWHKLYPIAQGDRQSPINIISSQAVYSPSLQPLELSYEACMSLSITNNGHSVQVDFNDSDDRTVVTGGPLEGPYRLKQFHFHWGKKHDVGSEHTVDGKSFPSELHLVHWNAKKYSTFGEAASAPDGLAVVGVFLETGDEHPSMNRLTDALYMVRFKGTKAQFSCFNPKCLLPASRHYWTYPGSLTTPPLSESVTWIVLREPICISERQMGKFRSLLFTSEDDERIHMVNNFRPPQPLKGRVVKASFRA
Description for Ca9-22: Cytotoxicity against human Ca9-22 cells assessed as cell growth inhibition measured after 48 hrs by MTT assay
Description for HSC-2: Cytotoxicity against human HSC-2 cells assessed as cell growth inhibition measured after 48 hrs by MTT assay
Description for HSC-3: Cytotoxicity against human HSC-3 cells assessed as cell growth inhibition measured after 48 hrs by MTT assay
Description for HSC-4: Cytotoxicity against human HSC-4 cells assessed as cell growth inhibition measured after 48 hrs by MTT assay
Description for HT-1080: Cytotoxicity against human HT-1080 cells assessed as cell growth inhibition measured after 48 hrs by MTT assay
Description for MCF7: Cytotoxicity against human MCF7 cells assessed as cell growth inhibition measured after 48 hrs by MTT assay
Description for SH-SY5Y: Cytotoxicity against human SH-SY5Y cells assessed as cell growth inhibition measured after 48 hrs by MTT assay
Description for in vitro: Cytotoxicity against human Corneal epithelial cell assessed as cell growth inhibition at 1 % measured after 96 hrs by MTT assay relative to control

For `NS(=O)(=O)c1ccc(N/C=C/C(=O)c2ccc(Br)cc2)cc1`, the Ki – broadly, the dissociation constant of the complex between target and ligand, obtained from inhibition or displacement – on Carbonic anhydrase 1 [1] is 8.5 µM; on Carbonic anhydrase 2 [2] it was 0.00048 µM; on Carbonic anhydrase 9 [3], 0.00021 µM; on Carbonic anhydrase 4 it was 0.0065 µM.
In the case of `O=C1/C(=C\c2ccc(O)c(CN3CCN(c4ccccc4F)CC3)c2)Cc2ccccc21`, on Carbonic anhydrase 2 [4], the affinity, expressed as Ki, was 0.0511 µM.
As to `NS(=O)(=O)c1ccc(N/C=C/C(=O)c2ccc([N+](=O)[O-])cc2)cc1`, the Ki on Carbonic anhydrase 1 [1] is greater than 10 µM; on Carbonic anhydrase 9 [3], 0.00021 µM; on Carbonic anhydrase 4, 0.0065 µM.
As for `COc1ccc(C2CC(c3ccccc3)=NN2c2ccc(S(N)(=O)=O)cc2)cc1OC` (configuration not stated), the CC50 with Ca9-22, with HSC-2, in the series with HSC-3 and with HSC-4 was 15 µM throughout.
For the compound `COc1ccc(C2CC(c3ccc(Cl)cc3)=NN2c2ccc(S(N)(=O)=O)cc2)cc1OC` (configuration not stated), the CC50 in the series on Ca9-22, in the series on HSC-2, with HSC-3 and with HSC-4 was 15 µM in each case.
With `COc1cccc(/C=C2/SC(=O)N(CC(=O)O)C2=O)c1`, the Ki at Carbonic anhydrase 1 [5] and at Carbonic anhydrase 9 [6] was greater than 100 µM in each case. In addition, on Carbonic anhydrase 12 [7], the Kis turned out to be 0.3 µM.
For `O=C(O)CN1C(=O)S/C(=C/c2ccc(Br)cc2)C1=O`, at Carbonic anhydrase 1 [5], the Ki was greater than 100 µM. Besides, the Kis at Carbonic anhydrase 12 [7] amounted to 0.3 µM.
With `NS(=O)(=O)c1ccc(C(=O)N[C@@H]2OC[C@@H](O)[C@H](O)[C@H]2O)cc1`, the inhibition (commonly the percentage by which the read-out fell short of the control) at 96 h, 1 % in the series “in vitro” turned out to be 74%.
With `COc1ccc(C2CC(c3ccc(F)cc3)=NN2c2ccc(S(N)(=O)=O)cc2)cc1OC` (configuration not stated), the CC50 with Ca9-22, in the series on HSC-2, in the series with HSC-3 and in the series with HSC-4 was 15 µM in each case.
With `O=C1/C(=C\c2ccc(O)c(CN3CCN(Cc4ccccc4)CC3)c2)Cc2ccccc21`, at Carbonic anhydrase 2 [4], affinity was put at a Ki of 0.0511 µM.
In the case of `NS(=O)(=O)c1ccc(N/C=C/C(=O)c2ccc3ccccc3c2)cc1`, the Ki was greater than 10 µM on Carbonic anhydrase 1 [1], 0.00048 µM at Carbonic anhydrase 2 [2], 0.00021 µM at Carbonic anhydrase 9 [3] and 0.0065 µM at Carbonic anhydrase 4.
For `O=C1/C(=C\c2ccc(O)c(CN3CCN(c4ccc(F)cc4)CC3)c2)Cc2ccccc21`, the affinity at Carbonic anhydrase 2 [4], expressed as Ki, was 0.0511 µM.
Turning to `O=S1(=O)CC=Cc2cc(-n3cc(-c4ccc(C(F)(F)F)cc4)nn3)ccc2O1`, the Kis at Carbonic anhydrase 12 [8] was 0.64 µM.
With `COc1ccc(C2CC(c3ccccc3)=NN2c2ccc(S(N)(=O)=O)cc2)c(OC)c1` (configuration not stated), the CC50 in the series with Ca9-22, in the series on HSC-2, in the series with HSC-3 and in the series on HSC-4 was 15 µM each time.
`NS(=O)(=O)c1ccc(N/C=C/C(=O)c2ccc(F)cc2)cc1`: the Ki at Carbonic anhydrase 1 [1] was 9.3 µM; at Carbonic anhydrase 2 [2], 0.00048 µM; at Carbonic anhydrase 9 [3] it was 0.00021 µM; at Carbonic anhydrase 4, 0.0065 µM.
In the case of `Cc1ccc(/C=C2/SC(=O)N(CC(=O)O)C2=O)cc1`, the Ki on Carbonic anhydrase 1 [5] and at Carbonic anhydrase 9 [6] was greater than 100 µM throughout. At Carbonic anhydrase 12 [7], this compound gave a Kis of 0.3 µM.
Take `O=C(O)CN1C(=O)S/C(=C/c2ccccc2Cl)C1=O`: the Ki on Carbonic anhydrase 1 [5] is greater than 100 µM. In addition, the Kis on Carbonic anhydrase 12 [7] worked out at 0.3 µM.
With `COc1cc([SeH])cc(OC)c1OC`, the Ki on Carbonic anhydrase 1 [1] was greater than 50 µM; at Carbonic anhydrase 2 [2], greater than 50 µM; at Carbonic anhydrase 9 [3], 0.18 µM; on Carbonic anhydrase 7, greater than 50 µM.
Regarding `NS(=O)(=O)c1ccc(N/N=C2\C(=O)Nc3ccccc32)cc1`, the Ki at Carbonic anhydrase 2 [9] came to 0.0065 µM; at Carbonic anhydrase 1 [5], 0.0902 µM; on Carbonic anhydrase 9 [6], 0.0214 µM; on Carbonic anhydrase 12 [10], 0.0343 µM.
Regarding `O=c1c2ccccc2nc(SCCN2CCCCC2)n1CCc1ccccc1`, the Ki at Carbonic anhydrase 1 [1] worked out at 0.229 µM; on Carbonic anhydrase 2 [2], 0.0142 µM; at Carbonic anhydrase 9 [3], 0.0193 µM; at Carbonic anhydrase 12 [11], 0.0172 µM.
For the compound `COc1ccc(C2CC(c3ccc(Br)cc3)=NN2c2ccc(S(N)(=O)=O)cc2)c(OC)c1` (configuration not stated), the CC50 in the series on Ca9-22, with HSC-2, in the series with HSC-3 and in the series on HSC-4 was 15 µM in each case.
On to `COc1ccc(C2CC(c3ccc(F)cc3)=NN2c2ccc(S(N)(=O)=O)cc2)c(OC)c1` (configuration not stated), for which the CC50 with Ca9-22, in the series on HSC-2, in the series on HSC-3 and with HSC-4 was 15 µM each time.
Consider `Nc1ccc2c(c1)C=CCS(=O)(=O)O2`, for which, on Carbonic anhydrase 12 [8], the Kis stood at 0.64 µM.
At Carbonic anhydrase 2 [4], `CS(=O)(=O)Cc1c(Br)c(O)c(O)c(Br)c1Br` registered an inhibition constant Ki of 0.0428 µM.
`O=S1(=O)C=Cc2cc(-n3cc(-c4ccc(Cl)cc4)nn3)ccc2O1`: the figures for the IC50 with HT-1080, with SH-SY5Y and in the series with MCF7 were 7.9 µM, 18.4 µM and 1.8 µM, respectively. In addition, the Ki at Carbonic anhydrase 9 [6] amounted to 0.0069 µM; on Carbonic anhydrase 12 [10] it was 0.0054 µM.
`CC(C)(C)c1ccc2c(c1)C(=O)N(NC(=O)c1ccc(S(N)(=O)=O)cc1)C2=O`: the values for the Kis at Carbonic anhydrase 1 [12] and at Carbonic anhydrase 9 [13] were 84.3 nM and 3 nM, respectively.
Regarding `O=C(O)CN1C(=O)S/C(=C/c2ccc(Cl)cc2)C1=O`, the Ki was greater than 100 µM on Carbonic anhydrase 1 [5] and 3.1 µM at Carbonic anhydrase 9 [6]. The compound further registered a Kis at Carbonic anhydrase 12 [7] of 0.3 µM.
For `NS(=O)(=O)c1ccc(C(=O)N[C@@H]2O[C@H](CO)[C@@H](O)[C@H](O)[C@H]2O)cc1`, the Ki at Carbonic anhydrase 2 [14] is 9 pM.
With `NS(=O)(=O)c1ccc(C(=O)NN2C(=O)c3nccnc3C2=O)cc1`, the Kis on Carbonic anhydrase 1 [12] was determined as 84.3 nM.
On Carbonic anhydrase 2 [14], `NS(=O)(=O)c1ccc(C(=O)N[C@@H]2O[C@H](CO)[C@H](O)[C@H](O)[C@H]2O)cc1` yielded a Ki of 9 pM.
Turning to `Cc1ccc2c(c1)C(=O)N(NC(=O)c1ccc(S(N)(=O)=O)cc1)C2=O`, the Kis worked out at 84.3 nM on Carbonic anhydrase 1 [12] and 3 nM on Carbonic anhydrase 9 [13].
On to `O=[N+]([O-])c1ccc2c(c1)C=CCS(=O)(=O)O2`, for which, at Carbonic anhydrase 12 [8], the Kis was determined as 0.64 µM.
Consider `COc1ccc(C2CC(c3ccc(Cl)cc3)=NN2c2ccc(S(N)(=O)=O)cc2)c(OC)c1` (configuration not stated), for which the CC50 with Ca9-22, in the series on HSC-2, in the series on HSC-3 and with HSC-4 was 15 µM throughout.
Regarding `NS(=O)(=O)c1ccc(NCC(=O)N/N=C2\C(=O)N(Cc3ccccc3)c3ccccc32)cc1`, the Ki on Carbonic anhydrase 2 [9] worked out at 0.003 µM; on Carbonic anhydrase 9 [6], 0.0164 µM; on Carbonic anhydrase 12 [10], 0.0343 µM.
As for `COc1ccc(/C=C2/SC(=O)N(CC(=O)O)C2=O)cc1`, the figures for the inhibition constant Ki at Carbonic anhydrase 1 [5] and on Carbonic anhydrase 9 [6] were greater than 100 µM and 3.1 µM, respectively. Also, the Kis on Carbonic anhydrase 12 [7] was determined as 0.3 µM.
As for `NS(=O)(=O)c1ccc(N=C2C(=O)Nc3ccccc32)cc1`, the results for the Ki at Carbonic anhydrase 2 [9], on Carbonic anhydrase 9 [6] and at Carbonic anhydrase 12 [10] were 0.003 µM, 0.0139 µM and 0.0343 µM, respectively.
The compound `O=C(O)CN1C(=O)S/C(=C/c2ccccc2)C1=O` came in with a Ki at Carbonic anhydrase 1 [5] greater than 100 µM. Further, the Kis on Carbonic anhydrase 12 [7] came to 0.3 µM.
Consider `O=S1(=O)C=Cc2cc(-c3nnnn3-c3ccccc3)ccc2O1`, for which the IC50 (in general, the concentration that inhibits the measured activity by half) came to 7.9 µM in the series on HT-1080, 18.4 µM in the series on SH-SY5Y and 1.8 µM in the series with MCF7. The Ki was determined as 0.0069 µM at Carbonic anhydrase 9 [6] and 0.0054 µM at Carbonic anhydrase 12 [10].
At Carbonic anhydrase 1 [12], `NS(=O)(=O)c1ccc(C(=O)NN2C(=O)C3CC=CCC3C2=O)cc1` (configuration not stated) had a Kis of 84.3 nM.
Compound `COc1ccccc1N1CCN(Cc2cc(/C=C3/Cc4ccccc4C3=O)ccc2O)CC1` gave a Ki on Carbonic anhydrase 2 [4] of 0.0511 µM.
`O=C1/C(=C\c2ccc(O)c(CN3CCN(c4ccccc4)CC3)c2)Cc2ccccc21`: on Carbonic anhydrase 2 [4], the affinity, expressed as Ki, was 0.0511 µM.
Same read-out and setting: next, `CS(=O)(=O)Cc1cc(O)c(O)c(Br)c1Br`: 0.0428 µM.
On to `O=S1(=O)C=Cc2cc(-c3nnnn3-c3ccc(F)c(Cl)c3)ccc2O1`, for which the IC50 with HT-1080 amounted to 7.9 µM; in the series with SH-SY5Y, 18.4 µM; in the series on MCF7, 1.8 µM.
As for `NS(=O)(=O)c1ccc(CCn2c(SCC(=O)Nc3ccc(Cl)cc3)nc3ccccc3c2=O)cc1`, at Carbonic anhydrase 2 [2], the Ki came out at 0.0254 µM.

Values taken from ChEMBL document CHEMBL5104090, “Recent advances in the medicinal chemistry of carbonic anhydrase inhibitors” (Eur J Med Chem, 2021).
